Test results from patent publication US20250129078A1, “ERBB2 INHIBITORS” (Cogent Biosciences, Inc., priority 2023, published 2025).
pIC50: −log10 of the molar value.

Legend:
ErbB2 V777L = ErbB2 V777L (Homo sapiens (Human), UniProt P04626, V777L); assay: ErbB enzyme assay (CisBio HTRF-KinEASE-TK), ErbB2 V777L; format: biochemical
Outline: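 HTRF KinEASE-TK tyrosine-kinase read-out of substrate phosphorylation after a final 1 h at ambient temperature, from the 655/620 nm emission ratio.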

EGFR WT = EGFR WT (Homo sapiens (Human), UniProt P00533); assay: ErbB enzyme assay (CisBio HTRF-KinEASE-TK), EGFR WT; format: biochemical; settings: ATP at Km (25 μM), 1 h incubation
EGFR WT, sequence (P00533 25-1210): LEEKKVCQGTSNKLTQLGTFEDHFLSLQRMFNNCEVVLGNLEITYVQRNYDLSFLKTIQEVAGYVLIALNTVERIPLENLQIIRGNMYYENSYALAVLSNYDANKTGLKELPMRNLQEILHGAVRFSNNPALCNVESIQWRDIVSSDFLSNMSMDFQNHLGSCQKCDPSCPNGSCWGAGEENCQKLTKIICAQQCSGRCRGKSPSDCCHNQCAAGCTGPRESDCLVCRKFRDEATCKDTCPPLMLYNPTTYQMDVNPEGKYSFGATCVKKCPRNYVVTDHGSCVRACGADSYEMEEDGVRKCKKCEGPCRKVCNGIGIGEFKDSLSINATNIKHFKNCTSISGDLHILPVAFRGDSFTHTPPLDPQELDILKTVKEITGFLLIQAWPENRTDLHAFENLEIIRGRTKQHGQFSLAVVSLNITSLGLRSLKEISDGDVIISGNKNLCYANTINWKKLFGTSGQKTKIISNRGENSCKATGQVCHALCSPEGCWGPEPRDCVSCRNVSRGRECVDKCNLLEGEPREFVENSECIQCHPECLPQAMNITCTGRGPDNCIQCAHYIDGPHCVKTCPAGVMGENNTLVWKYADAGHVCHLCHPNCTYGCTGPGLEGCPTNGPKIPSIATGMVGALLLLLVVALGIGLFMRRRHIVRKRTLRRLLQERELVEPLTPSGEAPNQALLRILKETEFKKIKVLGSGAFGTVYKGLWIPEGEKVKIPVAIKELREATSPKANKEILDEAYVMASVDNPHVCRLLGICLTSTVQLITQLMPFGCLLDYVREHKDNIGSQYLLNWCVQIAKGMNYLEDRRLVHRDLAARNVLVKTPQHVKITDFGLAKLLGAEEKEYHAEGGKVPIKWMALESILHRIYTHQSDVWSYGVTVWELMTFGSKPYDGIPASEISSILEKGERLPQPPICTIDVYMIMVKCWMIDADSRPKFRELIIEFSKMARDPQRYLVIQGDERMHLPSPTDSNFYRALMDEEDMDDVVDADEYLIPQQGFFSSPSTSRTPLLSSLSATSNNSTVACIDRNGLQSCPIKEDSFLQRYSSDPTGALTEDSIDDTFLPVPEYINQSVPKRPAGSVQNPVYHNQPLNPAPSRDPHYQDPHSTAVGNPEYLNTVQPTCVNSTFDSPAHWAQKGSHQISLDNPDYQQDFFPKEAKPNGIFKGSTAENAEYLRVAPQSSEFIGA
Outline: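 HTRF KinEASE-TK kinase assay, 1 h at ambient temperature with three-fold serial compound dilutions, then 1 h detection with Sa-XL665/TK-Ab-Cryptate. IC50 is the 50 POC point of a 4-parameter logistic fit.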

ErbB2 V777L, sequence (P04626 23-1255 V777L): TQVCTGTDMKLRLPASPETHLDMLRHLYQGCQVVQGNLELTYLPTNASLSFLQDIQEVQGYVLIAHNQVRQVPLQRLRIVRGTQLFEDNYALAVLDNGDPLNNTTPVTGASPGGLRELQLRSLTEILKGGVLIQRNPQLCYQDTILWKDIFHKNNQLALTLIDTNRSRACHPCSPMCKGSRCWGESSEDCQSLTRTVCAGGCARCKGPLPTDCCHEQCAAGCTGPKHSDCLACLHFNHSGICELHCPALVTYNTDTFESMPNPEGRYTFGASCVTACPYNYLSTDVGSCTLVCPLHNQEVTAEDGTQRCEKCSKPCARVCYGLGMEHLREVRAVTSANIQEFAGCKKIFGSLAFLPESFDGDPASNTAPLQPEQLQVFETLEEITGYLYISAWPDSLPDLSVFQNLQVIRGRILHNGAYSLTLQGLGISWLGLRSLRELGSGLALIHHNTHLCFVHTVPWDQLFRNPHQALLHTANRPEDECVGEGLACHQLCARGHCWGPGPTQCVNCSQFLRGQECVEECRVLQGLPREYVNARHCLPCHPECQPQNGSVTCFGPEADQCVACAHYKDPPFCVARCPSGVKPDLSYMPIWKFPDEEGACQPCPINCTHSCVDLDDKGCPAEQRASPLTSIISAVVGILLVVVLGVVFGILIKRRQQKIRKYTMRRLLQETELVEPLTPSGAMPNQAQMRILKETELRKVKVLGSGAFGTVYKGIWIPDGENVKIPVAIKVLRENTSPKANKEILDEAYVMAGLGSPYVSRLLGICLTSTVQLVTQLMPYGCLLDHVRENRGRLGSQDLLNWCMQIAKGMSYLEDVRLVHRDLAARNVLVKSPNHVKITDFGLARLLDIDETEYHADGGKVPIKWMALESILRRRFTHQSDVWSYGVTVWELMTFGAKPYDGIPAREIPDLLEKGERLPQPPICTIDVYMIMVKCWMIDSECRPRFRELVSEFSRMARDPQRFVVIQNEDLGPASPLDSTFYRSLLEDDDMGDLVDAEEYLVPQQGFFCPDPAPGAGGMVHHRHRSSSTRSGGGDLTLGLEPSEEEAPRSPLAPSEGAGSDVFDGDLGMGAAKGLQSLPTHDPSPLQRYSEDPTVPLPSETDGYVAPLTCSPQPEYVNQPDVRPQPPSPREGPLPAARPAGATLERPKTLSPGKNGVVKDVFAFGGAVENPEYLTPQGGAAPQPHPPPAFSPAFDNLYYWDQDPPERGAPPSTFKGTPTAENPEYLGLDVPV

SMILES | pIC50 (ErbB2 V777L) | pIC50 (EGFR WT)
C=CC(=O)N1CCC[C@@H](N(C)c2ncc3ncnc(Nc4ccc(Oc5ccc6c(c5)nnn6C)c(C)c4)c3n2)C1 [Compound 223, (R)-1-(3-(methyl(8-((3-methyl-4-((1-methyl-1H-benzo[d][1,2,3]triazol-5-yl)oxy)phenyl)amino)pyrimido[5,4-d]pyrimidin-2-yl)amino)piperidin-1-yl)prop-2-en-1-one] | 6.30 to 7.00 | 6.00 to 6.30
C=CC(=O)N1CCN(c2ncc3ncnc(Nc4ccc(Oc5cc6ncn(C)c6nc5C)c(C)c4)c3n2)CC1 [Compound 135, 1-(4-(8-((4-((3,5-dimethyl-3H-imidazo[4,5-b]pyridin-6-yl)oxy)-3-methylphenyl)amino)pyrimido[5,4-d]pyrimidin-2-yl)piperazin-1-yl)prop-2-en-1-one] | 7.00 to 7.30 | 6.30 to 7.00
C=CC(=O)N(C)C1CN(c2ncc3ncnc(Nc4ccc(Oc5ccc6c(c5)nnn6C)c(C)c4)c3n2)C1 [Compound 26, N-methyl-N-(1-(8-((3-methyl-4-((1-methyl-1H-benzo[d][1,2,3]triazol-5-yl)oxy)phenyl)amino)pyrimido[5,4-d]pyrimidin-2-yl)azetidin-3-yl)acrylamide] | 6.30 to 7.00 | 6.30 to 7.00
C=CC(=O)N1CCN(c2ccc3ncnc(Nc4c(OC)cc(Oc5ccc6c(c5)nnn6C)c(C)c4F)c3n2)C[C@H]1C [Compound 256, (R)-1-(4-(4-((2-fluoro-6-methoxy-3-methyl-4-((1-methyl-1H-benzo[d][1,2,3]triazol-5-yl)oxy)phenyl)amino)pyrido[3,2-d]pyrimidin-6-yl)-2-methylpiperazin-1-yl)prop-2-en-1-one] | 6.30 to 7.00 | 6.30 to 7.00
C=CC(=O)N1CCN(c2ccc3ncnc(Nc4ccc(Oc5ccc6c(c5)nnn6C)c(C)c4)c3n2)C[C@@H]1C1CC1 [Compound 250, (S)-1-(2-cyclopropyl-4-(4-((3-methyl-4-((1-methyl-1H-benzo[d][1,2,3]triazol-5-yl)oxy)phenyl)amino)pyrido[3,2-d]pyrimidin-6-yl)piperazin-1-yl)prop-2-en-1-one] | 6.30 to 7.00 | 6.00 to 6.30
C=CC(=O)N1CCN(c2ncc3ncnc(Nc4ccc(Oc5ccc6c(c5)nnn6C)c(C)c4F)c3n2)C[C@H]1C [Compound 156, (R)-1-(4-(8-((2-fluoro-3-methyl-4-((1-methyl-1H-benzo[d][1,2,3]triazol-5-yl)oxy)phenyl)amino)pyrimido[5,4-d]pyrimidin-2-y1)-2-methylpiperazin-1-yl)prop-2-en-1-one] | 6.30 to 7.00 | 6.30 to 7.00

Continued, values first:

pIC50 (ErbB2 V777L) | pIC50 (EGFR WT) | SMILES
6.30 to 7.00 | 6.00 to 6.30 | C=CC(=O)N1C2C=C(c3ccc4ncnc(Nc5ccc(Oc6ccc7c(c6)nnn7C)c(C)c5)c4n3)CC1CCC2 (stereo not drawn) [Compound 405, 1-(3-(4-((3-methyl-4-((1-methyl-1H-benzo[d][1,2,3]triazol-5-yl)oxy)phenyl)amino)pyrido[3,2-d]pyrimidin-6-yl)-9-azabicyclo[3.3.1]non-2-en-9-yl)prop-2-en-1-one]
6.00 to 6.30 | 6.00 to 6.30 | C=CC(=O)N1C2C=C(c3ccc4ncnc(Nc5ccc(Oc6ccc7c(c6)nnn7C)c(C)c5F)c4n3)CC1CCC2 (stereo not drawn) [Compound 414, 1-(3-(4-((2-fluoro-3-methyl-4-((1-methyl-1H-benzo[d][1,2,3]triazol-5-yl)oxy)phenyl)amino)pyrido[3,2-d]pyrimidin-6-yl)-9-azabicyclo[3.3.1]non-2-en-9-yl)prop-2-en-1-one]
7.00 to 7.30 | 6.30 to 7.00 | C=CC(=O)N[C@]1(C)CCN(c2ccc3ncnc(Nc4ccc(Oc5ccc6c(c5)nnn6C)c(C)c4F)c3n2)C1 [Compound 270, (R)-N-(1-(4-((2-fluoro-3-methyl-4-((1-methyl-1H-benzo[d][1,2,3]triazol-5-yl)oxy)phenyl)amino)pyrido[3,2-d]pyrimidin-6-yl)-3-methylpyrrolidin-3-yl)acrylamide]
